Test results taken from PMC6382696, “Drug Repurposing: The Anthelmintics Niclosamide and Nitazoxanide Are Potent TMEM16A Antagonists That Fully Bronchodilate Airways” (Frontiers in Pharmacology, 2019).

Tested on: human bronchial smooth muscle cells
Assay: Histamine-induced depolarization of human bronchial smooth muscle cells (FLIPR membrane potential)
Assay type: cell-based
Settings: donor 199524, 1 M histamine (so in the source), read-out: EC50 inhibition of histamine-induced depolarization (converted)

Compound | EC50 [µM]
CCc1oc2ccccc2c1C(=O)c1cc(Br)c(O)c(Br)c1 [Benzbromarone] | 9.9
Oc1ccc(Cl)cc1Cc1cc(Cl)ccc1O [Dichlorophen] | 4.1
CCc1c(C)nc(SCC(=O)Nc2nc(-c3ccc(OC)cc3)cs2)[nH]c1=O [T16Ainh-A01] | 3.9

Molecular target: T1, human CFTR (Homo sapiens, UniProt P13569)
T1 construct: host or cells: CHO
T1 sequence (P13569 whole entry): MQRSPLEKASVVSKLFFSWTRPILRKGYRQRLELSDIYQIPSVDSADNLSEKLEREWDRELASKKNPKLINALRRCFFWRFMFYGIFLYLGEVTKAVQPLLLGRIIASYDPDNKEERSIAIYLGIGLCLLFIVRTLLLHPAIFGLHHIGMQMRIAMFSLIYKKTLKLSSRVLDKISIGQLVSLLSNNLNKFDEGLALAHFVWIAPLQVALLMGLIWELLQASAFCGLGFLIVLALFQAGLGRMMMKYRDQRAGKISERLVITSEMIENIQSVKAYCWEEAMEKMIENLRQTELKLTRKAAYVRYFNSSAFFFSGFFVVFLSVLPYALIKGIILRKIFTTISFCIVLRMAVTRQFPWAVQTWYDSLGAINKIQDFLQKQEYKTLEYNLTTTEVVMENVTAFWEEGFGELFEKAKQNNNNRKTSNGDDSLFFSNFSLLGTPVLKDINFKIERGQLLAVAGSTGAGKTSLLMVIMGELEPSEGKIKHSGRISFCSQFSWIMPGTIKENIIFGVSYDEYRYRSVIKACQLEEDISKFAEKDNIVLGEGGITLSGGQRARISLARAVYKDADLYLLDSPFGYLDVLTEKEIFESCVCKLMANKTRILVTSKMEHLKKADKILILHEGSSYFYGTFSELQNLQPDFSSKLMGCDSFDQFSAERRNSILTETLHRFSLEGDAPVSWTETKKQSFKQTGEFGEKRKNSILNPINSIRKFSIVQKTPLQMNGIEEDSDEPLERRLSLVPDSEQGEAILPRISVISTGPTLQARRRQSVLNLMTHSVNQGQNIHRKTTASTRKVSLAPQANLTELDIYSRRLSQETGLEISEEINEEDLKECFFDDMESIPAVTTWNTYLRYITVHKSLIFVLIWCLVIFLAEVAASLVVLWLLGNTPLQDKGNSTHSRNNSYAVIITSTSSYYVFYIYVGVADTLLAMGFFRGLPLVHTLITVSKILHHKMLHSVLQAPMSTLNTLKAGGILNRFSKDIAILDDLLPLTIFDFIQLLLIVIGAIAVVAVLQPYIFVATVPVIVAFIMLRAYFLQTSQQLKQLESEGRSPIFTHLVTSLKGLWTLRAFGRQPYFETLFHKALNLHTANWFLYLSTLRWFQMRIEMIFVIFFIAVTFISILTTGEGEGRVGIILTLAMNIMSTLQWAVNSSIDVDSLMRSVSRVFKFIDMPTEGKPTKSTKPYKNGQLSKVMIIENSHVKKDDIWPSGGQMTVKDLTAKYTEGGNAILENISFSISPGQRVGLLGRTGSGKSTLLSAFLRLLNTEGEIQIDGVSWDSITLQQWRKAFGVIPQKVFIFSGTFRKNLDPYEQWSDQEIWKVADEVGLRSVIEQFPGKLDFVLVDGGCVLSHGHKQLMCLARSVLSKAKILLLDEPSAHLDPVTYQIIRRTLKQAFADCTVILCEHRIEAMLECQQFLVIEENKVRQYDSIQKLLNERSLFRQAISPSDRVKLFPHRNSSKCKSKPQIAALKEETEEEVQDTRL
Assay: IonWorks Barracuda electrophysiology, CFTR chloride current in CHO cells
Assay type: cell-based
Settings: not given
From the text: HEK293 cells stably expressing the human TMEM16A (abc) variant and CHO cells expressing the human CFTR gene were from ChanTest. The IonWorks Barracuda (IWB) procedure and data provided are from outsourced studies performed at ChanTest (Charles River Discovery, Cleveland, OH, United States) who were blinded as to the identity of the test articles or compounds provided by Amgen.
For measuring compound effects on CFTR chloride currents, compounds were serially diluted in HEPES-buffered physiological saline to 2X final concentration allowing for an 8-point dose-response analysis. Test article concentrations were applied to naïve cells (n = 4, where n = the number of replicate wells/concentration) via steel needles, where each application will consist of addition of 20 μl of 2X concentrated test article solution to a final 40 μl volume in the extracellular well of the Population Patch ClampTM (PPC) planar electrode. After mixing (three times), duration of exposure to compound is at least 5 min. Final solutions contain 0.3% DMSO. […] The current is measured using a pulse pattern consisting of a voltage step to +60 mV, 100 ms duration; voltage ramp from +60 to −120 mV, 1000 ms; step to −120 mV, 200 ms; and step to 0 mV, 200 ms; from holding potential, −30 mV. Current amplitudes were measured at the voltage step to 0 mV. The recording procedure was as follows: extracellular buffer is loaded into the PPC plate wells (11 μl per well). Cell suspension was pipetted into the wells (9 μl per well) of the PPC planar electrode. After establishment of a whole-cell configuration via amphotericin patch perforation similar to that described earlier, membrane currents were recorded using the patch clamp amplifier in the IonWorks^TM Barracuda system. Two recordings (scans) were then performed, one scan before and a second scan 5 min after test article (TA) application. […] Data acquisition and analyses were performed using the IonWorks Barracuda^TM system operation software (version 2.0.2). The decrease in current amplitude after test article application was used to calculate the percent block relative to control. […] Inhibition effect was calculated as: % Inhibition = (1 – ITA/IBaseline) × 100%, where IBaseline and ITA were the currents measured in control (before addition of a test article) and in the presence of a test article, respectively.

Compound | IC50 [µM] | percent of inhibition (POI) of the forskolin-induced CFTR current [%]
CCc1oc2ccccc2c1C(=O)c1cc(Br)c(O)c(Br)c1 [Benzbromarone] | 5.2 | 
O=C(Nc1ccc([N+](=O)[O-])cc1)c1cc(Cl)ccc1O [Cpd 2] |  | < 20
COc1cc([N+](=O)[O-])ccc1NC(=O)c1cc(Cl)c2ccccc2c1O [Cpd 4] |  | < 20
O=C(Nc1ccc([N+](=O)[O-])cc1Cl)c1cc(Cl)ccc1O [Niclosamide] |  | < 20

Same assay, conditions: 10 µM compound, CHO CFTR

Compound | effect on CFTR chloride current
COc1cc([N+](=O)[O-])ccc1NC(=O)c1cc(Cl)c2ccccc2c1O [Cpd 4] | no significant effects
O=C(Nc1ccc([N+](=O)[O-])cc1Cl)c1cc(Cl)ccc1O [Niclosamide] | no significant effects

Same assay, conditions: 20 μM forskolin, IonWorks Barracuda; read-out: CFTR Chloride Current (IC50)

Compound | IC50 [µM]
N#Cc1c(C(F)(F)F)cc(O)n2c1nc1ccccc12 [1PBC] | > 30
CC(C)(C)C1CCc2c(sc(NC(=O)c3ccco3)c2C(=O)O)C1 (stereo not shown) [CaCCinh-A01] | 10.1
COc1cc([N+](=O)[O-])ccc1NC(=O)c1cc(Cl)c2ccccc2c1O [Cpd 4] | > 30
COc1cc(Nc2ccc([N+](=O)[O-])cc2C(=O)O)cc2ccccc12 [MONNA] | 19
O=C(Nc1ccc([N+](=O)[O-])cc1Cl)c1cc(Cl)ccc1O [Niclosamide] | > 30
O=C(O)c1cccnc1Nc1cccc(C(F)(F)F)c1 [Niflumic Acid] | > 30
CCc1c(C)nc(SCC(=O)Nc2nc(-c3ccc(OC)cc3)cs2)[nH]c1=O [T16Ainh-A01] | > 30

Same assay, conditions: IonWorks Barracuda

Compound | effect on cAMP-induced CFTR chloride current
N#Cc1c(C(F)(F)F)cc(O)n2c1nc1ccccc12 [1PBC] | inactive
CCc1oc2ccccc2c1C(=O)c1cc(Br)c(O)c(Br)c1 [Benzbromarone] | reduced
CC(C)(C)C1CCc2c(sc(NC(=O)c3ccco3)c2C(=O)O)C1 (stereo not shown) [CaCCinh-A01] | reduced
O=C(Nc1ccc([N+](=O)[O-])cc1)c1cc(Cl)ccc1O [Cpd 2] | inactive
COc1cc([N+](=O)[O-])ccc1NC(=O)c1cc(Cl)c2ccccc2c1O [Cpd 4] | inactive
COc1cc(Nc2ccc([N+](=O)[O-])cc2C(=O)O)cc2ccccc12 [MONNA] | reduced
O=C(Nc1ccc([N+](=O)[O-])cc1Cl)c1cc(Cl)ccc1O [Niclosamide] | inactive

Tested on: human bronchial rings
Assay: Wire myograph bronchodilation of carbachol pre-contracted human bronchial rings (Amgen)
Settings: EC75 carbachol, 4th order bronchi, 5 μM indomethacin; read-out: EC50 relaxing carbachol precontracted human bronchial rings
Procedure: Bronchodilator studies using human bronchial rings (Figure 5E–G and Supplementary Figure 38) used the same instruments and reagents described earlier for studies on mouse tracheal rings.
Non-transplantable human lungs were obtained through the International Institute for the Advancement of Medicine, IIAM (Edison, NJ, United States) from non-smoking donors who had been ventilated for <3 days with acceptable blood gasses and used within 24 h of cross-clamp time.
Human 4th order bronchial rings were isolated, sliced into 2 mm long rings and then mounted individually in chambers of wire myographs containing 6 ml room temperature PSS per chamber. […] Bronchial rings are allowed to equilibrate in PSS while chambers are warmed to 37°C. […] The rings were then equilibrated for additional 40–60 min, changing buffer every 15–20 min. Tension was adjusted if it dropped below 9.8 mN. Airway rings were “woken up” by exposing to pre-warmed, aerated KPSS and allowing rings to reach plateau of constriction, followed by washing rings four times with PSS. This procedure was repeated two additional times.
Airway contraction response was then assessed by treating with increasing doses of the contractant, carbachol (10 nM to 10 μM), waiting for response plateaus (at least 5 min between additions).
At the end of each CCRC, rings were fully relaxed by addition of 2.2 mM theophylline. One hundred percent contraction was calculated by subtracting the stable tension remaining in the airway ring after theophylline addition from the tension achieved after addition of EC75 carbachol while 100% relaxation is the net tension remaining after theophylline addition. Dose response curves and EC50 values for bronchodilation were determined in GraphPad Prism.

Compound | EC50 [µM]
Oc1ccc(Cl)cc1Cc1cc(Cl)ccc1O [Dichlorophen] | 10.6 ± 12

Same assay, conditions: Homo sapiens, EC75 carbachol, 4th order bronchi, 5 μM indomethacin; read-out: EC50 relaxing carbachol precontracted human bronchial rings

Compound | EC50 [µM]
N#Cc1c(C(F)(F)F)cc(O)n2c1nc1ccccc12 [1PBC] | 0.91 ± 0.2
CCc1oc2ccccc2c1C(=O)c1cc(Br)c(O)c(Br)c1 [Benzbromarone] | 2.08 ± 1.95
CC(C)(C)C1CCc2c(sc(NC(=O)c3ccco3)c2C(=O)O)C1 (stereo not shown) [CaCCinh-A01] | 9.24
COc1cc([N+](=O)[O-])ccc1NC(=O)c1cc(Cl)c2ccccc2c1O [Cpd 4] | 1.61
Oc1ccc(Cl)cc1Cc1cc(Cl)ccc1O [Dichlorophen] | 19.1
O=C(Nc1ccc([N+](=O)[O-])cc1Cl)c1cc(Cl)ccc1O [Niclosamide] | 0.73
O=C(O)c1cccnc1Nc1cccc(C(F)(F)F)c1 [Niflumic Acid] | 14.4 ± 0.76

Same assay, conditions: Homo sapiens, supplement; 5 M indomethacin (so in the source); read-out: EC50 relaxation of carbachol pre-contracted human bronchial rings

Compound | EC50 [µM]
N#Cc1c(C(F)(F)F)cc(O)n2c1nc1ccccc12 [1PBC] | 0.761
CCc1oc2ccccc2c1C(=O)c1cc(Br)c(O)c(Br)c1 [Benzbromarone] | 3.45
O=C(O)c1cccnc1Nc1cccc(C(F)(F)F)c1 [Niflumic Acid] | 14.9
